Assay results reported in ChEMBL document CHEMBL4000236, “Nardonaphthalenones A and B from the roots and rhizomes of Nardostachys chinensis Batal” (Bioorg Med Chem Lett, 2017).
The source made the active and inactive calls. No cut-off for these calls is given here.

Assays:
Assay type in all cases: cell-based
[1] = target: Sodium-dependent serotonin transporter (Homo sapiens) (UniProt P31645); test: Modulation of human SERT expressed in HEK293 cells at 10 uM using APP+ as substrate by fluorescence assay relative to control
Sodium-dependent serotonin transporter (Homo sapiens), sequence (P31645 whole entry, looked up): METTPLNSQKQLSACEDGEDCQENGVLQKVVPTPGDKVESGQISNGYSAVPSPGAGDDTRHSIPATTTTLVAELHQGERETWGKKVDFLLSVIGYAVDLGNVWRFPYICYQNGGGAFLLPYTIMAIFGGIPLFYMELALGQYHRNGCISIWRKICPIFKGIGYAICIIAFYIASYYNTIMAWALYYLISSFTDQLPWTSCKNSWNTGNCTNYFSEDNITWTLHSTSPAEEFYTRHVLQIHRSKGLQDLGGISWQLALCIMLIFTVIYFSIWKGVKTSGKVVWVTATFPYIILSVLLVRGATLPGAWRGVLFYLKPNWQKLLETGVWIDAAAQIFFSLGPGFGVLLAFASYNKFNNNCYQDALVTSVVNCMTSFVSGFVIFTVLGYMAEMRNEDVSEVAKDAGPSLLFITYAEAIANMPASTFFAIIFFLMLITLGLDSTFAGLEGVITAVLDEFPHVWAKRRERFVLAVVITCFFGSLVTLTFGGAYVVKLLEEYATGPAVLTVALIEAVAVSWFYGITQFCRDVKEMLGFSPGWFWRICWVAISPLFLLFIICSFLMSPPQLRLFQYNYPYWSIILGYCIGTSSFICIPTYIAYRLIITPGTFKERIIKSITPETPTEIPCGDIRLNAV

[2] = target: Sodium-dependent serotonin transporter (Homo sapiens) (UniProt P31645); test: Modulation of human SERT expressed in HEK293 cells at 1 uM using APP+ as substrate by fluorescence assay relative to control
[3] = target: Sodium-dependent serotonin transporter (Homo sapiens) (UniProt P31645); test: Modulation of human SERT expressed in HEK293 cells at 0.1 uM using APP+ as substrate by fluorescence assay relative to control

| SMILES | fold change (FC) [1] | fold change (FC) [2] | fold change (FC) [3] | Activity [1] | Activity [2] | Activity [3] |
| --- | --- | --- | --- | --- | --- | --- |
| COC1=CC(C)(C)c2cc(OC)c(C)cc2C1=O | 0.942 | 1 | 0.956 | – | – | – |
| COC(=O)C1=CO[C@@H](O[C@@H]2O[C@H](CO)[C@@H](O)[C@H](O)[C@H]2O)[C@H]2[C@@H](CO)CC[C@H]12 | – | – | – | inactive | inactive | inactive |
| CC(C)CC(=O)OCC1=CO[C@@H](OC(=O)CC(C)C)C2C1CC(=O)[C@H]2C (stereo not given in full) | – | – | – | inactive | inactive | inactive |
| CC(C)CC(=O)O[C@@H]1OC=C(CO[C@@H]2O[C@H](CO)[C@@H](O)[C@H](O)[C@H]2O)C2C[C@H](O)[C@@H](CO)C21 (stereo not given in full) | 0.933 | 0.981 | 0.975 | – | – | – |
| CN1c2ccccc2C(NCCCCCCC(=O)O)c2ccc(Cl)cc2S1(=O)=O (stereo not given) | – | 1.18 | – | – | – | – |
| CC(=O)/C=C/C1(O)C(C)(C)CCCC1(C)O (stereo not given) | 1.09 | 1.07 | 0.934 | – | – | – |
| COC1=CC(C)(C)c2cc(OC)c(C)c(OC)c2C1=O | 1.05 | 1.05 | 1.07 | – | – | – |
| CC(=O)CC/C=C(C)/C=C/[C@H]1C(C)=CC(=O)CC1(C)C | 1.1 | 1.07 | 1.06 | – | – | – |
| CC(=O)OC[C@H]1O[C@@H](OCC2=CO[C@@H](OC(=O)CC(C)C)C3C2C[C@H](O)[C@H]3CO)[C@H](O)[C@H](O)[C@@H]1O (stereo not given in full) | – | – | – | inactive | inactive | inactive |
| C[C@H]1CC[C@@H]2C(C(=O)O)=CO[C@@H](O[C@@H]3O[C@H](CO)[C@@H](O)[C@H](O)[C@H]3O)[C@H]21 | 1.07 | 1.08 | 1.05 | – | – | – |
| C/C1=C\CC[C@@H](C)CCO[C@@H]2O[C@H](CO[C@@H]3OC[C@](O)(COC1=O)[C@H]3O)[C@@H](O)[C@H](O)[C@H]2O | 1.06 | 1.08 | 1.04 | – | – | – |
| CC1=CC(=O)CC(C)(C)[C@@H]1CC[C@@H](C)OC(=O)CC(C)C | 1.07 | 1.05 | 1.03 | – | – | – |
| COC(=O)C1=CO[C@@H](O[C@@H]2O[C@H](CO)[C@@H](O)[C@H](O)[C@H]2O)[C@H]2[C@@H](COC(C)=O)CC[C@H]12 | 0.989 | 1.07 | 0.965 | – | – | – |
| CC(=O)/C=C/C1=C(C)CCCC1(C)C | 1.01 | 1.07 | 0.989 | – | – | – |
